Experimental data: publication PMC9017309, “Triazolopyrimidines Target Aerobic Respiration in Mycobacterium tuberculosis” (Antimicrobial Agents and Chemotherapy, 2022)
In brackets after ≈: the same amount, converted by molar mass.

How the values were obtained:
M. tuberculosis = type: cell-based, Mycobacterium tuberculosis; details: normalized to DMSO control
[1] = system: M. tuberculosis in human THP-1 macrophages; assay: Activity against intracellular M. tuberculosis in THP-1 macrophages; type: cell-based; details: Mycobacterium tuberculosis, THP-1, 72 h, unit inferred, μM
human HepG2 cells = details: read-out: IC50 HepG2, Glucose; concentration reducing cell number by 50%, 3 days exposure, glucose as carbon source; cited from earlier work
[2] = system: M. tuberculosis H37Rv-LP (ATCC 25618); assay: MIC in liquid medium, parental strain; type: cell-based; details: Mycobacterium tuberculosis, 120 h, n in brackets
in vitro = details: human
[3] = system: M. tuberculosis H37Rv ATCC 27294; assay: microbe, parasite or virus in culture; type: cell-based; details: Mycobacterium tuberculosis, 120 h; 5 days; read-out: MIC, H37Rv ATCC 27294 Parental
[4] = system: M. tuberculosis H37Rv-LP (ATCC 25618); assay: microbe, parasite or virus in culture; type: cell-based; details: Mycobacterium tuberculosis, 504 h, 24-well agar plates, 3 weeks, read-out: MIC on solid medium, H37Rv-LP

SMILES | Effect on intracellular ATP levels (M. tuberculosis) | IC50 [1] [µM] | IC50 (human HepG2 cells) [µM] | MIC [2] [µM] | IC50 (in vitro) [µM] | MIC [3] [µM] | MIC [4] [µM]
CCc1nc2ccc(Cl)cn2c1C(=O)NCc1ccc(N2CCC(c3ccc(OC(F)(F)F)cc3)CC2)cc1 [Molecule Q203, Q203] | depletion of ATP levels at concentrations lower than the MIC |  |  |  |  |  | 
COc1ccc(CCNc2cc(-c3ccccc3)nc3ncnn23)cc1 [TPN-0006218] |  | 0.23 ± 0.08 | > 100 | 2.6 ± 1.3 (≈ 0.898 µg/mL) | 65 |  | 
COc1ccc(CCNc2cc(-c3ccccn3)nc3ncnn23)cc1 [TPN-0006239] |  |  | > 100 | 1.1 ± 0.5 (≈ 0.381 µg/mL) | 73 | 9.5 ± 3.5 (≈ 3.29 µg/mL) | 1.6 (≈ 0.554 µg/mL)
FC(F)(F)c1ccc(CCNc2cc(-c3ccccc3)nc3ncnn23)cc1 [TPN-0006243] |  |  | > 100 | 3.7 ± 2.9 (≈ 1.42 µg/mL) | > 100 | 2.2 ± 0.9 (≈ 0.843 µg/mL) | 
Cc1ccc(CCNc2cc(-c3ccccc3)nc3ncnn23)cc1 [TPN-0006245] |  |  | 58 | 2 ± 1.1 (≈ 0.659 µg/mL) | 39 |  | 
FC(F)(F)c1ccc(CCNc2cc(-c3ccccn3)nc3ncnn23)cc1 [TPN-0006267] |  | 0.21 ± 0.11 | > 100 | 1.4 ± 1.4 (≈ 0.538 µg/mL) | > 100 |  | 1.6 (≈ 0.615 µg/mL)
Clc1ccc(CCNc2cc(-c3ccccn3)nc3ncnn23)cc1 [TPN-0006273] |  | 0.19 ± 0.13 | 100 |  | 76 |  | 
CCc1ccc(CCNc2cc(-c3ccccn3)nc3ncnn23)cc1 [TPN-0006288] |  | 0.076 ± 0.032 | 44 |  | 23 |  | 
CCc1ccc(CCNc2cc(-c3ccccc3)nc3ncnn23)cc1 [TPN-0006290] |  | 0.18 ± 0.09 | 49 |  | 33 |  | 
NC[C@H]1O[C@H](O[C@H]2[C@H](O)[C@@H](O[C@H]3O[C@H](CO)[C@@H](O)[C@H](N)[C@H]3O)[C@H](N)C[C@@H]2N)[C@H](O)[C@@H](O)[C@@H]1O [kanamycin] | Depletion of ATP was not seen |  |  |  |  |  | 
